Measured values published in patent US9884063B2, “Amido-substituted azole compounds” (Bayer Pharma Aktiengesellschaft, priority 2014, dated 2018).

What was measured:
[1] = test system: wildtype Wnt signaling cascade; assay: HEK293 TOP Assay (Super TopFlash luciferase reporter, Wnt-3a stimulated); format: cell-based; conditions: Homo sapiens, HEK293, 16 h
Method in brief: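 HEK293 cells stably carrying Super TopFlash (TOP) or FOP reporter, stimulated with recombinant human Wnt-3a (2500–5 ng/ml, two-fold steps). Both lines incubated in parallel with compound from 50 μM to 15 nM (3.16-fold) in CAFTY buffer pH 7.4 with 2 mM Ca2+ and 0.01% BSA; selectivity judged TOP vs FOP.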

TNKS2 = target: T1, TNKS2 (Homo sapiens, UniProt Q9H2K2); assay: Modified TNKS2 Assay 2 (auto-parsylation, [3H]-NAD+ SPA); format: biochemical; conditions: 6 nM TNKS2, 96 well
T1 sequence (Q9H2K2 1-1166): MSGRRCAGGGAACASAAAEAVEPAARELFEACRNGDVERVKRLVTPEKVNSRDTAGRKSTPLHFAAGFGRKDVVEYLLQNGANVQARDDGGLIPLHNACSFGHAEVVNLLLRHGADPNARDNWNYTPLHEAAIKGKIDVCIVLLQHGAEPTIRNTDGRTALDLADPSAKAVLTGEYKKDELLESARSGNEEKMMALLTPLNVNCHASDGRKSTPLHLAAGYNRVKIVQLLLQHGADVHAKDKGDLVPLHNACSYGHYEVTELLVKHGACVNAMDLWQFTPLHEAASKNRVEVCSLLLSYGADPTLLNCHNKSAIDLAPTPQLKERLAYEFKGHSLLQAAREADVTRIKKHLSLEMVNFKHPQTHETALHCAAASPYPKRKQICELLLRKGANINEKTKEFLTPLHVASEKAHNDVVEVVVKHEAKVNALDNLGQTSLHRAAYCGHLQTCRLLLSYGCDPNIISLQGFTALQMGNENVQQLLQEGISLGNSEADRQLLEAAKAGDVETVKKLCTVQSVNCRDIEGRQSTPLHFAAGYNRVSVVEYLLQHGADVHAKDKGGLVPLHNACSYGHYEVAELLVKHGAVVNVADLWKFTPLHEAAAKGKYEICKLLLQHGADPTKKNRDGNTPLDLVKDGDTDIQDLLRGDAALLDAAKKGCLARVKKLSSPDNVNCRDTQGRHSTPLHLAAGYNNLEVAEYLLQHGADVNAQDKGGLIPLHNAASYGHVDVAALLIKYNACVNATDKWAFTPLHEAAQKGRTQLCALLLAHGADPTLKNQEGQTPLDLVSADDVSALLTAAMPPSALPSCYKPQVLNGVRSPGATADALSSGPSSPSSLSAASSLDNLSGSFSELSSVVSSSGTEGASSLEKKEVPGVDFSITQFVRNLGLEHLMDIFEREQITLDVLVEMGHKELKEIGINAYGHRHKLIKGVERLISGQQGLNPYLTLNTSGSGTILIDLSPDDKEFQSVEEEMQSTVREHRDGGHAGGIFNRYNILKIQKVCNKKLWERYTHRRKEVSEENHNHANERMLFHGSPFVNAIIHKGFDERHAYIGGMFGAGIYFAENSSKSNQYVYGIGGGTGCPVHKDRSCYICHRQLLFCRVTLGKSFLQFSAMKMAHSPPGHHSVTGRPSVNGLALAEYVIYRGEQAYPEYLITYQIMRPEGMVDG

[2] = HEK293 TOP reporter cell line, Wnt-3a at EC50, 16 hours incubation, compound dilution series 50 μM to 15 nM

Compound | IC50 [1, 2] | IC50 (TNKS2) | IC50 ([1]; HEK293 TOP reporter cells, Wnt3a at EC50, 16 hours, luciferase)
CNC(=O)c1nc[nH]c1C(=O)Nc1ccc(NC(=O)c2ccc(C#N)cc2)cc1 [Example 322, N^5-{4-[(4-cyanobenzoyl)amino]phenyl}-N^4-methyl-1H-imidazole-4,5-dicarboxamide] | 2300 nM | 950 nM | 
CNC(=O)c1nc[nH]c1C(=O)Nc1ccc(NC(=O)c2cccc(F)c2Cl)cc1 [Example 370, N^5-{4-[(2-chloro-3-fluorobenzoyl)amino]phenyl}-N^4-methyl-1H-imidazole-4,5-dicarboxamide] | 4950 nM | 2200 nM | 
CN(C)CCNC(=O)c1nc[nH]c1C(=O)Nc1ccc(NC(=O)c2ccc(F)cc2)c(F)c1 [Example 77, N^4-[2-(dimethylamino)ethyl]-N^5-{3-fluoro-4-[(4-fluorobenzoyl)amino]phenyl}-1H-imidazole-4,5-dicarboxamide] | 4400 nM | 1800 nM | 
CNC(=O)c1nc[nH]c1C(=O)Nc1ccc(NC(=O)c2ccc(C)c(Cl)c2)cc1 [Example 344, N^5-{4-[(3-chloro-4-methylbenzoyl)amino]phenyl}-N^4-methyl-1H-imidazole-4,5-dicarboxamide] | 27000 nM | > 10000 nM | 
CCNC(=O)c1nc[nH]c1C(=O)Nc1ccc(NC(=O)c2cc(OC)ccc2Cl)cc1 [Example 264, N^5-{4-[(2-chloro-5-methoxybenzoyl)amino]phenyl}-N^4-ethyl-1H-imidazole-4,5-dicarboxamide] | 1600 nM | 480 nM | 
CCN(CC)CCCCNC(=O)c1nc[nH]c1C(=O)Nc1ccc(NC(=O)c2ccc(F)cc2Cl)cc1 [Example 393, N^5-{4-[(2-chloro-4-fluorobenzoyl)amino]phenyl}-N^4-[4-(diethylamino)butyl]-1H-imidazole-4,5-dicarboxamide] | 880 nM | 750 nM | 
CNC(=O)c1nc[nH]c1C(=O)Nc1ccc(NC(=O)c2c(F)cc(F)cc2F)cc1 [Example 342, N^4-methyl-N^5-{4-[(2,4,6-trifluorobenzoyl)amino]phenyl}-1H-imidazole-4,5-dicarboxamide] | 800 nM | 540 nM | 
CNC(=O)c1nc[nH]c1C(=O)Nc1ccc(NC(=O)c2c(C)cccc2Cl)cc1 [Example 343, N^5-{4-[(2-chloro-6-methylbenzoyl)amino]phenyl}-N^4-methyl-1H-imidazole-4,5-dicarboxamide] | 1450 nM | 1700 nM | 
CNC(=O)c1nc[nH]c1C(=O)Nc1ccc(NC(=O)c2c(F)ccc(F)c2Cl)cc1 [Example 374, N^5-{4-[(2-chloro-3,6-difluorobenzoyl)amino]phenyl}-N^4-methyl-1H-imidazole-4,5-dicarboxamide] | 1800 nM | 1300 nM | 
CNC(=O)c1nc[nH]c1C(=O)Nc1ccc(NC(=O)c2cc(C(F)(F)F)ccc2Cl)cc1 [Example 352, N^5-(4-{[2-chloro-5-(trifluoromethyl)benzoyl]amino}phenyl)-N^4-methyl-1H-imidazole-4,5-dicarboxamide] | 710 nM | 1300 nM | 
CNC(=O)c1nc[nH]c1C(=O)Nc1ccc(NC(=O)c2ccc(Cl)cc2F)cc1 [Example 333, N^5-{4-[(4-chloro-2-fluorobenzoyl)amino]phenyl}-N^4-methyl-1H-imidazole-4,5-dicarboxamide] | 950 nM | 580 nM | 
O=C(Nc1ccc(NC(=O)c2[nH]cnc2C(=O)N2CCOCC2)cc1)c1ccc(F)cc1Cl [Example 29, N-{4-[(2-chloro-4-fluorobenzoyl)amino]phenyl}-5-(morpholin-4-ylcarbonyl)-1H-imidazole-4-carboxamide] | 3930 nM | 1900 nM | 3920 nM
CN1CCN(CC(C)(C)CNC(=O)c2nc[nH]c2C(=O)Nc2ccc(NC(=O)c3ccc(F)cc3Cl)cc2)CC1 [Example 415, N^5-{4-[(2-chloro-4-fluorobenzoyl)amino]phenyl}-N^4-[2,2-dimethyl-3-(4-methylpiperazin-1-yl)propyl]-1H-imidazole-4,5-dicarboxamide] | 560 nM | 80 nM | 

Stronger by IC50 [1, 2], values ahead:

IC50 [1, 2] | IC50 (TNKS2) | IC50 ([1]; HEK293 TOP reporter cells, Wnt3a at EC50, 16 hours, luciferase) | Compound
360 nM | 30 nM |  | CN(C)CCNC(=O)c1nc[nH]c1C(=O)Nc1ccc(NC(=O)c2ccc(F)cc2Cl)c(F)c1 [Example 73, N^5-{4-[(2-chloro-4-fluorobenzoyl)amino]-3-fluorophenyl}-N^4-[2-(dimethylamino)ethyl]-1H-imidazole-4,5-dicarboxamide]
40 nM | 10 nM |  | CS(=O)(=O)c1ccc(C(=O)Nc2ccc(NC(=O)c3[nH]cnc3C(=O)NCCN3CCCCC3)cc2)c(Cl)c1 [Example 53, N^5-(4-{[2-chloro-4-(methylsulfonyl)benzoyl]amino}phenyl)-N^4-[2-(piperidin-1-yl)ethyl]-1H-imidazole-4,5-dicarboxamide]
280 nM | > 10000 nM |  | O=C(Nc1ccc(NC(=O)c2[nH]cnc2C(=O)NCCN2CCCCC2)cc1F)c1ccc(F)cc1 [Example 78, N^5-{3-fluoro-4-[(4-fluorobenzoyl)amino]phenyl}-N^4-[2-(piperidin-1-yl)ethyl]-1H-imidazole-4,5-dicarboxamide]
80 nM | 20 nM |  | O=C(Nc1ccc(NC(=O)c2nc[nH]c2C(=O)NCCN2CCCCC2)cc1)c1ccccc1Cl [Example 381, N^4-{4-[(2-chlorobenzoyl)amino]phenyl}-N^5-[2-(piperidin-1-yl)ethyl]-1H-imidazole-4,5-dicarboxamide]
360 nM | 500 nM |  | CCNC(=O)c1nc[nH]c1C(=O)Nc1ccc(NC(=O)c2cnccc2Cl)cc1 [Example 263, N^5-(4-{[(4-chloropyridin-3-yl)carbonyl]amino}phenyl)-N^4-ethyl-1H-imidazole-4,5-dicarboxamide]
270 nM | 70 nM |  | CNC(=O)c1nc[nH]c1C(=O)Nc1ccc(NC(=O)c2ccc(S(C)(=O)=O)cc2Cl)cc1 [Example 55, N^5-(4-{[2-chloro-4-(methylsulfonyl)benzoyl]amino}phenyl)-N^4-methyl-1H-imidazole-4,5-dicarboxamide]
240 nM | 340 nM |  | CNC(=O)c1nc[nH]c1C(=O)Nc1ccc(NC(=O)c2cc(Cl)ccc2Cl)cc1 [Example 309, N^5-{4-[(2,5-dichlorobenzoyl)amino]phenyl}-N^4-methyl-1H-imidazole-4,5-dicarboxamide]
140 nM | 10 nM |  | O=C(Nc1ccc(NC(=O)c2ocnc2C(=O)NCCN2CCCCC2)cc1)c1ccc(F)cc1Cl [Example 303, N^5-{4-[(2-chloro-4-fluorobenzoyl)amino]phenyl}-N^4-[2-(piperidin-1-yl)ethyl]-1,3-oxazole-4,5-dicarboxamide]
300 nM | 60 nM |  | CN1CCCC(CNC(=O)c2[nH]cnc2C(=O)Nc2ccc(NC(=O)c3ccc(F)cc3Cl)cc2)C1 (stereo not drawn) [Example 298, N^4-{4-[(2-chloro-4-fluorobenzoyl)amino]phenyl}-N^5-[(1-methylpiperidin-3-yl)methyl]-1H-imidazole-4,5-dicarboxamide]
160 nM | 10 nM |  | Cc1cc(NC(=O)c2[nH]cnc2C(=O)NCCN2CCCCC2)ccc1NC(=O)c1ccc(F)cc1Cl [Example 85, N^5-{4-[(2-chloro-4-fluorobenzoyl)amino]-3-methylphenyl}-N^4-[2-(piperidin-1-yl)ethyl]-1H-imidazole-4,5-dicarboxamide]
290 nM | 1100 nM |  | CN1CC2(C1)CN(C(=O)c1nc[nH]c1C(=O)Nc1ccc(NC(=O)c3ccc(F)cc3Cl)cc1)C2 [Example 46, N-{4-[(2-chloro-4-fluorobenzoyl)amino]phenyl}-4-[(6-methyl-2,6-diazaspiro[3.3]hept-2-yl)carbonyl]-1H-imidazole-5-carboxamide]
460 nM | 200 nM |  | O=C(Nc1ccc(NC(=O)c2nc[nH]c2C(=O)NCC2CCOCC2)cc1)c1ccc(F)cc1Cl [Example 397, N^5-{4-[(2-chloro-4-fluorobenzoyl)amino]phenyl}-N^4-(tetrahydro-2H-pyran-4-ylmethyl)-1H-imidazole-4,5-dicarboxamide]
